pIC50: −log10 of the molar value. Where two headings read alike, the source gives them in different places. Blank lines part the entries; values can stand above or below the molecule they belong to.
Assays:
[1] = molecular target: T1, baculovirus-expressed ALK (Homo sapiens, UniProt Q9UM73); test: ALK Kinase Assay (ELISA-type, time-resolved fluorescence); format: biochemical
T1 construct: host or cells: baculovirus expression system
Procedure, shortened: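 Wells were coated with phospholipase C-γ at 10 μg/mL in Tris-buffered saline. Adding 30 ng/ml enzyme started the reaction, which ran at 37° C for 15 minutes before Eu-N1 PT66 antibody detection. Percent inhibition versus log10 concentration gave IC50 by variable-slope fit.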

[2] = molecular target: T2, c-Met (cytoplasmic domain) (Homo sapiens, UniProt P08581); test: c-Met Kinase Assay (same methods as for ALK, with modifications); format: biochemical
T2 construct: 10 ng/mL c-Met (cytoplasmic domain, Invitrogen Corporation #PV3143); purchased Invitrogen Corporation PV3143
Procedure, shortened: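 IC50 values were fitted by variable-slope sigmoidal regression of percent inhibition against log compound concentration. Phosphorylation was read with Eu-N1 PT66 antibody after a 15 min, 37 °C reaction. The reaction was initiated with 10 ng/mL c-Met cytoplasmic domain on wells coated with 10 μg/mL PLC-γ in TBS.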

[3] = 1 μM ATP (Km level), read-out: ALK Activity (ALK Kinase Inhibition, IC50)
[4] = 1 μM ATP (Km level), read-out: cMet Activity (c-Met Kinase Inhibition, IC50)
[5] = ALK kinase inhibition, 1 μM ATP, read-out: ALK Activity
[6] = c-Met kinase inhibition, 1 μM ATP, read-out: cMet Activity
[7] = ALK kinase inhibition, 1 μM ATP (Km level), read-out: ALK Activity
[8] = c-Met kinase inhibition, 1 μM ATP (Km level), read-out: cMet Activity
[9] = 1 μM ATP (Km level), 30 ng/ml ALK, 37° C., 15 minutes, read-out: ALK Activity (ALK kinase inhibition, IC50 class)
[10] = 1 μM ATP (Km level), 10 ng/mL c-Met, read-out: cMet Activity (c-Met kinase inhibition, IC50 class)

T2 sequence (P08581 956-1390 limits assumed): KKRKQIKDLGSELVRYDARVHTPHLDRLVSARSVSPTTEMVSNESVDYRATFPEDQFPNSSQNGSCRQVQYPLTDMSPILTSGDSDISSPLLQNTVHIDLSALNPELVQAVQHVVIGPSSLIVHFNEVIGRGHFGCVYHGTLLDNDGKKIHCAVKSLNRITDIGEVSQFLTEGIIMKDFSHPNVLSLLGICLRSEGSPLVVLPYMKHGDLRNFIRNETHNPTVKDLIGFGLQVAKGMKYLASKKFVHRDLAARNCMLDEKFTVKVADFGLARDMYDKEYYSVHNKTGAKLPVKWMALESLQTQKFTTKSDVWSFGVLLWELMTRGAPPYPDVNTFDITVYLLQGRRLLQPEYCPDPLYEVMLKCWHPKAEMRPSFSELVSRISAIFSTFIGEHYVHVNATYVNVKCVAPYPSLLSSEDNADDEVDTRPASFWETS
T1 sequence (Q9UM73 19-1620): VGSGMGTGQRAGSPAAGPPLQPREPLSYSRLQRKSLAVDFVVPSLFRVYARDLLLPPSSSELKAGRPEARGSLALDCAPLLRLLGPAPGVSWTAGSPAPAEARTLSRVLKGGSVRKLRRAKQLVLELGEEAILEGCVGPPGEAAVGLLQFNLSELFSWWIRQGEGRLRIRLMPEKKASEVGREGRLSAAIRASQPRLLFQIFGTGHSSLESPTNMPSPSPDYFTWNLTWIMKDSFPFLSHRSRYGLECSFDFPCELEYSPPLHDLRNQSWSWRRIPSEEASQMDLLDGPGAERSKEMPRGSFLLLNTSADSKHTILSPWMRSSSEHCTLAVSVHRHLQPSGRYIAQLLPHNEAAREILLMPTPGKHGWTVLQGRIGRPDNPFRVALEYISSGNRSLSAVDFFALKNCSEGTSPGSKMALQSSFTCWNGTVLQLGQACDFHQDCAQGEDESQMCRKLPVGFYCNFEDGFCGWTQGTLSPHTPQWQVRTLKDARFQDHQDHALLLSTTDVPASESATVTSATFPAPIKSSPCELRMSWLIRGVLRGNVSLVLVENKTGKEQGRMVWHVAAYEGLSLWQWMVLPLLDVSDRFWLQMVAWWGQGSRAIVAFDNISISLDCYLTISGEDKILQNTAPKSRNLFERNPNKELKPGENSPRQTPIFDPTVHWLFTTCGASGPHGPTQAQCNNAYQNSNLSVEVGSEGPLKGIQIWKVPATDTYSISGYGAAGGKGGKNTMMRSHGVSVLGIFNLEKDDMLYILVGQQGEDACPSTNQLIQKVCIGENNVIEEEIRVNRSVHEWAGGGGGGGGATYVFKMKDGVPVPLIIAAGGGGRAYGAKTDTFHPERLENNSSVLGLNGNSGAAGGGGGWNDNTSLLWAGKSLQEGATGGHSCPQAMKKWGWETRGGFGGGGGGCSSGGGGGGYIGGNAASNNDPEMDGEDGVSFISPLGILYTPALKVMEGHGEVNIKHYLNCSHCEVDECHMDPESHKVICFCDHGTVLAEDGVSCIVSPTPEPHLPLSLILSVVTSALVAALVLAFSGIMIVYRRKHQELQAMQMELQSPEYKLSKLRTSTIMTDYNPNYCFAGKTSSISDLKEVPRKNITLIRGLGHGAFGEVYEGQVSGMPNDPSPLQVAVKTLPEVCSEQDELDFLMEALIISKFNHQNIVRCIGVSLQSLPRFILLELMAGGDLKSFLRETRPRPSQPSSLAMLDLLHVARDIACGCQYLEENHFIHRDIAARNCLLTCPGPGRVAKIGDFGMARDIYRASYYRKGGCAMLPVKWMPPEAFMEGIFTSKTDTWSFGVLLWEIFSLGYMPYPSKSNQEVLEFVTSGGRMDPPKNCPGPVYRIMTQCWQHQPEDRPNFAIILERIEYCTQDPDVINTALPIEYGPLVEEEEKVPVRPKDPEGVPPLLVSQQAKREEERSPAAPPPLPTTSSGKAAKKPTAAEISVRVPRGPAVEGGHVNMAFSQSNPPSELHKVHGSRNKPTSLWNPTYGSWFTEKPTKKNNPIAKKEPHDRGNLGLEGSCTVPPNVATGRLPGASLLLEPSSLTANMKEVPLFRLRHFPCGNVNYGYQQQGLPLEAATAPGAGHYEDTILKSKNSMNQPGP

Structure (SMILES): CNC(=O)c1ccccc1Nc1nc(Nc2ccc3c(c2)C2CN(S(C)(=O)=O)CC3O2)ncc1Cl (stereo not drawn) [Example 64, 2-[5-Chloro-2-(10-methanesulfonyl-12-oxa-10-aza-tricyclo[6.3.1.0*2,7*]dodeca-2(7),3,5-trien-4-ylamino)-pyrimidin-4-ylamino]-N-methyl-benzamide]
pIC50 [1, 7]: 6.00 to 7.00
pIC50 [2, 8]: > 7.00

Structure (SMILES): CC(C)N1C2CCC1c1cc(Nc3ncc(Cl)c(N[C@@H]4CCCC[C@H]4NS(C)(=O)=O)n3)ccc1C2 (stereo partly drawn) [Example 83, N-{(1R,2R)-2-[5-Chloro-2-(12-isopropyl-12-aza-tricyclo[7.2.1.0*2,7*]dodeca-2(7),3,5-trien-4-ylamino)-pyrimidin-4-ylamino]-cyclohexyl}-methanesulfonamide]
pIC50 [1, 7]: > 7.00
pIC50 [2, 8]: 6.00 to 7.00

Structure (SMILES): CC(C)NC(=O)c1ccccc1Nc1nc(Nc2ccc3c(c2)C(C)(C)CCC(=O)N3)ncc1Cl [Example 340]
pIC50 [1, 7]: > 7.00
pIC50 [2, 8]: 6.00 to 7.00

Structure (SMILES): CC(=O)OCCN1CCN(C)c2cc(Nc3ncc(Cl)c(N[C@@H]4CCCC[C@H]4NS(C)(=O)=O)n3)ccc2C1 [Example 476, Acetic acid 2-{8-[5-chloro-4-((1R,2R)-2-methanesulfonylamino-cyclohexylamino)-pyrimidin-2-ylamino]-1-methyl-1,2,3,5-tetrahydro-benzo[e][1,4]diazepin-4-yl}-ethyl ester]
pIC50 [1, 7]: > 7.00
pIC50 [2, 8]: 5.00 to 6.00

Structure (SMILES): COCCN1CCc2ccc(Nc3ncc(Cl)c(N[C@@H]4CCCC[C@H]4NS(C)(=O)=O)n3)cc2CC1 [Example 36, N-((1R,2R)-2-{5-Chloro-2-[3-(2-methoxy-ethyl)-2,3,4,5-tetrahydro-1H-benzo[d]azepin-7-ylamino]-pyrimidin-4-ylamino}-cyclohexyl)-methanesulfonamide]
pIC50 [1, 7]: > 7.00
pIC50 [2, 8]: 5.00 to 6.00

Structure (SMILES): CCN1C(=O)CCCc2ccc(Nc3ncc(Cl)c(Nc4ccccc4OCC#N)n3)cc21 [Example 1230, {2-[5-Chloro-2-(1-ethyl-2-oxo-2,3,4,5-tetrahydro-1H-1-benzazepin-8-ylamino)-pyrimidin-4-ylamino]-phenoxy}-acetonitrile]
pIC50 [1, 9]: > 7.00
pIC50 [2, 10]: > 7.00

Structure (SMILES): CNC(=O)c1cccc(F)c1Nc1nc(Nc2ccc3c(c2)-n2cccc2C(=O)CO3)ncc1Cl [Example 1268, 2-[5-Chloro-2-(4-oxo-4,5-dihydro-6-oxa-10b-aza-benz[e]azulen-9-ylamino)-pyrimidin-4-ylamino]-3-fluoro-N-methyl-benzamide]
pIC50 [1, 9]: 6.00 to 7.00
pIC50 [2, 10]: > 7.00

Structure (SMILES): CNC(=O)c1ccccc1Nc1nc(Nc2ccc3c(c2)NC(=O)CN(C)C3)ncc1Cl [Example 1867, 2-[5-Chloro-2-(4-methyl-2-oxo-2,3,4,5-tetrahydro-1H-benzo[e][1,4]diazepin-8-ylamino)-pyrimidin-4-ylamino]-N-methyl-benzamide]
pIC50 [1, 5]: 5.00 to 6.00
pIC50 [2, 6]: > 7.00

Structure (SMILES): CNC(=O)c1ccccc1Nc1nc(Nc2ccc3c(c2)C2CCC(C3)N2S(C)(=O)=O)ncc1Cl (racemic) [Example 102, (+/−)-2-[5-Chloro-2-(12-methanesulfonyl-12-aza-tricyclo[7.2.1.0*2,7*]dodeca-2(7),3,5-trien-4-ylamino)-pyrimidin-4-ylamino]-N-methyl-benzamide]
pIC50 [1, 7]: > 7.00
pIC50 [2, 8]: > 7.00

Structure (SMILES): CCN1C(=O)C(NC(=O)C(F)(F)F)CCc2c1ccc(Nc1ncc(Cl)c(N[C@H]3[C@@H](C(N)=O)[C@@H]4C=C[C@H]3C4)n1)c2OC (stereo partly drawn) [Example 1330, (1S,2S,3R,4R)-3-{5-Chloro-2-[1-ethyl-6-methoxy-2-oxo-3-(2,2,2-trifluoro-acetylamino)-2,3,4,5-tetrahydro-1H-benzo[b]azepin-7-ylamino]-pyrimidin-4-ylamino}-bicyclo[2.2.1]hept-5-ene-2-carboxylic acid amide]
pIC50 [1, 9]: > 7.00
pIC50 [2, 10]: < 5.00

Structure (SMILES): CNC(=O)c1ccccc1N(C)c1nc(Nc2ccc3c(c2)CN(C)C(=O)CC3)ncc1F [Example 1800, 2-{[5-Fluoro-2-(2-methyl-3-oxo-2,3,4,5-tetrahydro-1H-benzo[c]azepin-8-ylamino)-pyrimidin-4-yl]-methyl-amino}-N-methyl-benzamide]
pIC50 [1, 5]: 5.00 to 6.00
pIC50 [2, 6]: > 7.00

Structure (SMILES): CNC(=O)c1cccc(F)c1Nc1nc(Nc2ccc3c(c2)NC(=O)CN(C(=O)OCc2ccccc2)C3)ncc1Cl [Example 1857, 8-[5-Chloro-4-(2-fluoro-6-methylcarbamoyl-phenylamino)-pyrimidin-2-ylamino]-2-oxo-1,2,3,5-tetrahydro-benzo[e][1,4]diazepine-4-carboxylic acid benzyl ester]
pIC50 [1, 5]: 6.00 to 7.00
pIC50 [2, 6]: > 7.00

Structure (SMILES): COc1ccc(Nc2ncc(Cl)c(N[C@H]3[C@@H](C(N)=O)[C@@H]4C=C[C@H]3C4)n2)c2c1CCCC(N1CCOCC1)C2 (single isomer, unassigned) [Example 943]
pIC50 [1, 3]: 5.00 to 6.00
pIC50 [2, 4]: < 5.00

Structure (SMILES): CCN1CC(N2CCOCC2)COc2ccc(Nc3ncc(Cl)c(Nc4c(F)cccc4C(=O)NC)n3)cc21 (stereo not drawn) [Example 1722, 2-[5-Chloro-2-(9-ethyl-7-morpholin-4-yl-6,7,8,9-tetrahydro-5-oxa-9-aza-benzocyclohepten-2-ylamino)-pyrimidin-4-ylamino]-3-fluoro-N-methyl-benzamide]
pIC50 [1, 5]: > 7.00
pIC50 [2, 6]: > 7.00

Second part, the molecule after the results:

pIC50 [1, 3]: > 7.00
pIC50 [2, 4]: 5.00 to 6.00
Structure (SMILES): COc1c(Nc2ncc(Cl)c(Nc3ccccc3S(=O)(=O)N(C)C)n2)ccc2c1CCC(N1CCOCC1)CC2 (stereo not drawn) [Example 889, 2-[5-Chloro-2-(1-methoxy-7-morpholin-4-yl-6,7,8,9-tetrahydro-5H-benzocyclohepten-2-ylamino)-pyrimidin-4-ylamino]-N,N-dimethyl-benzenesulfonamide]

pIC50 [1, 5]: 6.00 to 7.00
pIC50 [2, 6]: > 7.00
Structure (SMILES): C#CCNC(=O)c1cccc(F)c1Nc1nc(Nc2ccc3c(c2)OCCCN3C(=O)CN2CCCC2)ncc1Cl [Example 1716, 2-{5-Chloro-2-[9-(2-pyrrolidin-1-yl-acetyl)-6,7,8,9-tetrahydro-5-oxa-9-aza-benzocyclohepten-3-ylamino]-pyrimidin-4-ylamino}-3-fluoro-N-prop-2-ynyl-benzamide]

pIC50 [1, 9]: > 7.00
pIC50 [2, 10]: 5.00 to 6.00
Structure (SMILES): COc1cc(N(C)C)ccc1Nc1nc(Nc2ccc3c(c2)C(C)(C)CCC(=O)N3C)ncc1Cl [Example 1342, 7-[5-Chloro-4-(4-dimethylamino-2-methoxy-phenylamino)-pyrimidin-2-ylamino]-1,5,5-trimethyl-1,3,4,5-tetrahydro-benzo[b]azepin-2-one]

pIC50 [1, 5]: 6.00 to 7.00
pIC50 [2, 6]: > 7.00
Structure (SMILES): CNC(=O)c1sc(Br)c(C)c1Nc1nc(Nc2ccc3c(c2)CCOC(=O)N3C)ncc1Cl [Example 1771, 5-Bromo-3-[5-chloro-2-(5-methyl-6-oxo-5,6,8,9-tetrahydro-7-oxa-5-aza-benzocyclohepten-2-ylamino)-pyrimidin-4-ylamino]-4-methyl-thiophene-2-carboxylic acid methylamide]

pIC50 [1, 7]: > 7.00
pIC50 [2, 8]: 5.00 to 6.00
Structure (SMILES): CCN1CC2CC(C1)c1cc(Nc3ncc(Cl)c(Nc4ccccc4S(=O)(=O)NC)n3)ccc12 (stereo not drawn) [Example 157, 2-[5-Chloro-2-(10-ethyl-10-aza-tricyclo[6.3.1.0*2,7*]dodeca-2,4,6-trien-4-ylamino)-pyrimidin-4-ylamino]-N-methyl-benzenesulfonamide]

pIC50 [1, 9]: > 7.00
pIC50 [2, 10]: 6.00 to 7.00
Structure (SMILES): CNC(=O)c1ccccc1Nc1nc(Nc2cc3c(cc2OC)CCC(NCCOC)CC3)ncc1Cl (stereo not drawn) [Example 1086, 2-{5-Chloro-2-[3-methoxy-7-(2-methoxy-ethylamino)-6,7,8,9-tetrahydro-5H-benzocyclohepten-2-ylamino]-pyrimidin-4-ylamino}-N-methyl-benzamide]

pIC50 [1, 3]: > 7.00
pIC50 [2, 4]: < 5.00
Structure (SMILES): COCCNC1CCCc2c(ccc(Nc3ncc(Cl)c(N[C@@H]4CCCC[C@H]4NS(C)(=O)=O)n3)c2OC)C1 (stereo partly drawn) [Example 958, N-((1R,2R)-2-{5-Chloro-2-[1-methoxy-6-(2-methoxy-ethylamino)-6,7,8,9-tetrahydro-5H-benzocyclohepten-2-ylamino]-pyrimidin-4-ylamino}-cyclohexyl)-methanesulfonamide]

pIC50 [1, 3]: > 7.00
pIC50 [2, 4]: > 7.00
Structure (SMILES): CNC(=O)c1ccccc1Nc1nc(Nc2ccc3c(c2)CN(CCO)CCS3)ncc1Cl [Example 528, 2-{5-Chloro-2-[8-(hydroxyl-ethyl)-6,7,8,9-tetrahydro-5-thia-8-aza-benzoylcyclohepten-2-ylamino]-pyrimidin-4-ylamino}-N-methyl-benzamide]

pIC50 [1, 3]: > 7.00
pIC50 [2, 4]: 6.00 to 7.00
Structure (SMILES): CNC(=O)c1ccccc1Nc1nc(Nc2ccc3c(c2)CN(CCOC)CCS3)ncc1Cl [Example 522, 2-{5-Chloro-2-[8-(2-methoxy-ethyl)-6,7,8,9-tetrahydro-5-thia-8-aza-benzocyclohepten-2-ylamino]-pyrimidin-4-ylamino}-N-methyl-benzamide]

pIC50 [1, 3]: 6.00 to 7.00
pIC50 [2, 4]: 5.00 to 6.00
Structure (SMILES): CNC(=O)c1cccc(Nc2nc(Nc3ccc4c(c3)C(C)(C)CCC(=O)N4)ncc2Cl)c1 [Example 672, 3-[5-Chloro-2-(5,5-dimethyl-2-oxo-2,3,4,5-tetrahydro-1H-benzo[b]azepin-7-ylamino)-pyrimidin-4-ylamino]-N-methyl-benzamide]
